Assay results reported in PMC5443859, “EGFR-targeting peptide-coupled platinum(IV) complexes” (Journal of Biological Inorganic Chemistry, 2017).

Legend:
A431 cells = experiment: Long-term clonogenic assay, 14 days; type: cell-based, human; conditions: 25 and 50 µM, crystal violet, three experiments in duplicates, result in words
Experimental: Subsequently, the dissolved drugs were added.

H520 cells = experiment: cells; conditions: Homo sapiens, NCI-H520, 72 h, read-out: IC50 ± SD
Experimental: (§1) The following human cell models were used in this study: the renal cell carcinomas RUMH, the squamous cell carcinoma H520, the epidermoid carcinoma A431, as well as the non-small-cell lung cancer (NSCLC) line HCC827 (sources and used medium are summarized in (Table 2). Unless otherwise indicated, the cells were cultivated in humidified incubators (37 °C, 21% O2, 5% CO2) in full culture medium, containing 10% fetal calf serum (PAA, Linz, Austria). Cell cultures were periodically checked for Mycoplasma contamination.
(§2) Subsequently, the dissolved drugs were added. […] Cytotoxicity was expressed as IC50 values calculated from full dose–response curves using GraphPad Prism software. […] Then, the cells were exposed to the indicated drugs (25 or 50 µM) for 14 days. After washing with phosphate-buffered saline (PBS), the cells were fixed with methanol (−20 °C, 20 min) and after another washing step stained with crystal violet (1 h). […] The sum of fluorescence intensities per well was measured with ImageJ and, after blank subtraction, normalized to the untreated cells.

RUMH cells = experiment: cells; type: cell-based; conditions: Homo sapiens, EGFR/wt overexpression, 72 h treatment, MTT assay
Experimental: as §1, §2

SMILES	long-term treatment effect, normalized to untreated cells (A431 cells)	IC50 (H520 cells)	IC50 (RUMH cells)
O=C1[O][Pt]2([NH][C@@H]3CCCC[C@H]3[NH]2)[O]C1=O [oxaliplatin]	too low to be seen in this graph	–	–
C#Cc1cccc(Nc2ncnc3cc(OCCOC)c(OCCOC)cc23)c1 [Erlotinib, erlotinib]	–	> 25 µM	23 ± 2.6 µM
